Laboratory results published in US8377990B2, “Conjugates comprising a psychotropic drug or a GABA agonist and an organic acid and their use in treating pain and other CNS disorders” (Ramot at Tel-Aviv University Ltd., priority 2006, dated 2013).
Entries after “also recorded” stand apart in the source; their conditions may differ.

What was measured:
Male Balb-c mice = assay: Hot plate test, latency of the nociceptive reaction to heat; type: in vivo; conditions: for antinociceptive activity (latency to heat): entire period
Wistar rats = conditions: high doses of fluoxetine; Omar et al. Pharmacol. Res. 49 (2004) 119-131; cited from earlier work
[1] = treated orally for 5 consecutive days, AN-214 0.2 mg/kg or equivalent molar dose of AN-216, FIG. 7

For “2-Propyl-pentanoic acid (valproic acid) 4-aminobutyryloxymethyl ester hydrochloride [AN-216]”, the “antinociceptive activity (latency to heat)” value (shortened to “antinociceptive activity”) (Male Balb-c mice; [1]) was “no antinociceptive activity was detected”.

In the case of `CNCCC=C1c2ccccc2CCc2ccccc21` [nortriptyline], the “latency of response to heat” value (Male Balb-c mice; p.o. 0.25 mg/kg nortriptyline or equimolar conjugate (0.32 mg/kg), 4 hours following treatment, vs untreated mice, FIG. 2A) is reported as “increased significantly the latency of response compared to untreated mice”, the “latency of response to heat, onset” value (Male Balb-c mice; p.o. 0.5 mg/kg nortriptyline, time course, vs vehicle, FIG. 2B) is reported as “significant latency, (compared to vehicle treated animals), after 4 hours only” and the “latency of response to heat” value (Male Balb-c mice; single p.o. dose, 0.5 mg/kg nortriptyline or equimolar dose of conjugate, two hours after administration, FIG. 1, 0.5 mg/kg) is reported as “significantly less effective; also recorded: did not differ significantly (p>0.05) from control mice”. For the same compound, the “latency of response to heat” value (Male Balb-c mice; single p.o. dose, 4.5 mg/kg nortriptyline or equimolar dose of conjugate, two hours after administration, vs vehicle, p<0.05, FIG. 1) was “significant delay in the response compared to control mice”.

For `NCCCC(=O)O` [GABA, γ-aminobutyric acid], the “latency in response to heat sensation” value (Male Balb-c mice; GABA 2.39 mg/kg, >10-folds higher dose than the conjugate, FIG. 6) was “had no activity” and the “antinociceptive activity” value (Male Balb-c mice; GABA orally for 5 consecutive days, three different doses, FIG. 8) was “No antinociceptive activity was detected”.

For `CNCCC(Oc1ccc(C(F)(F)F)cc1)c1ccccc1` (centres unmarked) [fluoxetine], the “oedema response in rats” value (Wistar rats) is given as “previously shown to reduce oedema response in rats”, the “antinociceptive effect (latency to heat) during repeated treatment” value (Male Balb-c mice; repeated oral treatment daily for 11 days, fluoxetine 10 mg/kg or equimolar conjugate, FIGS. 5B-E) is given as “significantly better antinociceptive effect compared to untreated animals” and the “response to heat sensation prior to daily treatment” value (Male Balb-c mice; repeated oral treatment daily for 11 days, fluoxetine 10 mg/kg or equimolar conjugate, tested at days 3, 7, 9 and 11, vs vehicle, FIG. 5A) is given as “A delay was noted only on day 11”.

With `Cl.NCCCC(=O)OCOC(=O)CCCN` [AN-214, 4-Amino-butyric acid 4-amino-butyryloxymethyl ester dihydrochloride] the “antinociceptive activity” value (Male Balb-c mice; [1]) was “no antinociceptive activity was detected”.
